# Test results taken from patent publication US7030287B2, “Method of decreasing nitrate nitrogen and volatile organic compound in soil and groundwater” (Matsushita Electric Industrial Co., Ltd., priority 2001, dated 2006).
# Tests used:
# [1] = Polluted soil experiment (Examples 4 to 7): 1,1,1-trichloroethane concentration in polluted soil by GC-MS
# Text: (§1) FIG. 4 is a view showing an experiment facility used for effecting the method of decreasing nitrate nitrogen and volatile organic compounds in Example 4. A part (a) of FIG. 4 is a plan view of the experiment facility, and a part (b) of FIG. 4 is a side view thereof.
# (§2) As shown in the part (a) of FIG. 4, the polluted soil 32 is provided approximately at the center of the experiment bath 34 so that it is surrounded by the experiment soil 33.
# (§3) In Example 4, the concrete frame 31 in the form of square measure is a cube of 1 m square having open upper part, and artificial soil prepared by mixing kuroboku soil and loam in equivalent amounts was charged in the experiment bath 34 formed with the concrete frame 31 and allowed to stand outdoors (average temperature: 21° C.) for about 2 months.
# (§4) Then, the surface of the artificial soil formed as described above was dug to form a hole in the form of cylinder having a diameter of 30 cm and a depth of 50 cm, and this hole was re-buried with the polluted soil 32.
# (§5) The polluted soil was obtained by adding experiment materials (containing no nitrogen atom) such as fatty acids and alcohols of the present invention and comparative materials of conventional technologies used for comparison in an amount of 1 wt % to 1.2 ton of soil polluted with 1,1,1-trichloroethane and 1,1-dichloroethylene (containing about 1400 μg/L of […], about 50 μg/L of 1,1-dichloroethylene, by elution test according to Kankoku No. 46), and mixing kuroboku soil and loam in equivalent amounts uniformly.
# (§6) To the polluted soil formed as described above was fed diammonium hydrogen phosphate having a concentration of 100 mg/L as a nutrient salt (nitrogen source) at a ratio of 140 L/day.
# (§7) Under the above-mentioned conditions, the concentrations of 1,1,1-trichloroethane and 1,1-dichloroethylene in the polluted soil 32 were measured by gas chromatograph mass spectrometry 20 days after initiation of the experiment. Soils around the re-buried polluted soil 32 (soils on four corners A to D at a depth of 50 cm in FIG. 4) were sampled, and four-point average values of the total carbon concentration and total nitrogen concentration per soil dried weight were measured.
# (§8) In the method of decreasing nitrate nitrogen and volatile organic compounds in Example 5, the same experiment facility (FIG. 4) as in Example 4 was used. Stearic acid was used as the decreasing agent such as fatty acids, alcohols and the like used in the present invention, and an iron powder having an average particle size of about 15 μm was added simultaneously with this stearic acid, to give polluted soil of compartment No. 1. In polluted soil of compartment No. 2, stearic acid and an aluminum powder having an average particle size of 180 μm were added in the same concentration as the polluted soil of compartment No. 1. The same experiment as in Example 4 was conducted on these polluted soils (compartment Nos. 1, 2).
# (§9) In the method of decreasing nitrate nitrogen and volatile organic compounds in Example 6, the same experiment facility (FIG. 4) as in Example 4 was used. Beef tallow fatty acid was used as the decreasing agent such as fatty acids, alcohols and the like used in the present invention, and a bacteria previously cultured was inoculated to the soil and the same experiment as in Example 4 was conducted.
# (§10) For obtaining the bacteria used in Example 6, 1,1,1-trichloroethane was controlled to 5000 μg/L, 1,1-dichloroethylene was controlled to 5000 μg/L, diammonium hydrogen phosphate was controlled to 800 mg/L and beef tallow fatty acid which was only carbon source was controlled to 0.5 wt % in soil collected at a point of 30 cm depth from the ground surface of agricultural land (tea field), and the medium was cultured at a temperature of 16° C. for 12 days.
# (§11) In the method of decreasing nitrate nitrogen and volatile organic compounds in Example 7, the same experiment facility (FIG. 4) as in Example 4 was used. […]
# [2] = Polluted soil experiment (Examples 4 to 7): 1,1-dichloroethylene concentration in polluted soil by GC-MS
# Text: as §1, §2, §3, §4, §5, §6, §7, §8, §9, §10, §11
# [3] = Artificial soil experiment (Example 1): materials mixed 1 wt % in kuroboku soil, analysis of water passed through the gravel layer; settings: water passed through soil with 1 wt % material, nitrate nitrogen solution 90 mg/L added 100 mL/day
# Description: FIG. 1 is a sectional view showing an artificial soil experiment facility used for effecting a soil experiment in a method of decreasing nitrate nitrogen and volatile organic compounds in Example 1.
# On each experiment bath 7, nozzles are placed for adding a nitrate nitrogen solution, and these nozzles are communicated with a pipe 6 in which the nitrate nitrogen solution flows.
# The following experiments were conducted using the artificial soil experiment facility constituted as described above.
# In the experiment bath 7, a gravel layer 3 and experiment soil 2 are placed. In each experiment soil 2, a carrot seedling 5 is planted.
# The ground surface area of the experimental bath 7 was 11 m^2, and the soil depth of the experimental soil 2 was 1.4 m. Kuroboku soil was used as the experimental soil 2. Under this experiment soil 2, a gravel layer 3 is formed by placing gravels at a thickness of 20 cm from the bottom.
# In 14 compartments of experiment layers 7, five carrot seedlings having a leaf length of about 14 cm were planted in each compartment, and a nitrate nitrogen solution of which nitrate nitrogen concentration had been previously controlled to 90 mg/L was added continuously at a rate of 100 mL/day using a metering pump. Of 14 compartments of experiment layers 7, in compartments Nos. 1 to 9, experiment materials of the present invention were mixed in soil, and in compartments Nos. 10 to 14, comparative materials were mixed in soil, before experiments.
# The experiment soils 2 in each test district and comparative district were made by uniformly mixing experiment materials (fatty acid, alcohol and the like) and comparative materials (materials used in conventional technologies) in a soil dry weight ratio of 1 wt %, previously.
# In the artificial soil experiment facility constituted as described above, water passed through the gravel layer 3 was collected, and analyses of the nitrate nitrogen concentration, ammonia nitrogen concentration and total carbon concentration after 65 days were conducted according to JIS methods.
# [4] = Artificial groundwater experiment (Example 2): 800 g hydrogen donor added from artificial well, analysis of sampled groundwater; settings: 800 g material, nitrate nitrogen solution 40 mg/L added 12 mL/day
# Text: FIG. 2 is a sectional view showing an artificial groundwater experiment facility used for effecting a groundwater experiment in the method of decreasing nitrate nitrogen and volatile organic compounds in Example 2.
# In the experiment bath 17 surrounded by the concrete block frame 11 in the artificial groundwater experiment facility, the ground surface area of the experiment soil 12 was 18 m^2, and the soil depth was 6.0 m. Under this experiment soil 12, a gravel layer 13 is formed at a thickness of 50 cm. A mixture of kuroboku soil and loam at a ratio of about 6:4 was used as the experiment soil 12.
# In the experiment bath 17, an artificial well 14 constituted of a vinyl chloride tube having a diameter of 20 cm is provided. This artificial well 14 is provided at a position 0.5 m from the inner wall surface at one end of the experiment bath 17 (this inner wall surface is standard position) and has a depth of about 6 m, and reaches to the gravel layer 13. Further, a nitrate nitrogen solution addition piper 16 for adding a nitrate nitrogen solution is buried at a position 2 m from the inner wall surface (standard position) of the experiment bath 17 in the artificial groundwater experiment facility, extending to a position 4 m depth from the ground surface. A measurement water incorporating port 15 communicating to outside is provided on another inner wall surface opposite to the standard surface, one inner wall surface. This measurement water incorporating port 15 is formed at a position 50 cm from the bottom (corresponding to the uppermost part of the gravel layer 13), and provided for sampling measurement water which is groundwater.
# The following experiments were conducted in 12 compartments using the artificial soil experiment facility constituted as described above.
# In each experiment bath 17, a nitrate nitrogen solution of which nitrate nitrogen concentration had been previously controlled to 40 mg/L was added continuously from the end of the nitrate nitrogen solution adding pipe 16 (position 4 m from the ground surface) at a rate of 12 mL/day using a metering pump.
# Under the above-mentioned conditions, movement of artificial groundwater is estimated to about 6.5 m/year. The present inventors have added 800 g of each hydrogen donor from the artificial well 14 in each test district and each comparative district. 30 days after initiation of the test, water was sampled from the measurement water incorporating port 15 formed at a position 50 cm from the bottom (corresponding to the uppermost part of gravel layer), and analyses of the nitrate nitrogen concentration, ammonia nitrogen concentration and total carbon concentration of the collected water were conducted according to JIS methods.
# [5] = Example 7, nutrient salt containing nitrogen not added
# [6] = Example 4, 1 wt % material in polluted soil (about 1400 μg/L initially), diammonium hydrogen phosphate fed
# [7] = Example 4, 1 wt % material in polluted soil (about 50 μg/L initially), diammonium hydrogen phosphate fed
compound,measurement,setting,value
"CC(=O)O [Acetic acid, reference compound]","1,1,1-trichloroethane concentration after 20 days",[1]; [5],1350 µg/L
same,"1,1-dichloroethylene concentration after 20 days",[2]; [5],41 µg/L
CCCCCCCCCCCCCCCCCCCCCCO [Behenyl alcohol],"1,1,1-trichloroethane concentration after 20 days",[1]; [6],920 µg/L
same,"1,1-dichloroethylene concentration after 20 days",[2]; [7],21 µg/L
"CCCCCCCC(=O)O [Caprylic acid, reference compound]","1,1,1-trichloroethane concentration after 20 days",[1]; [6],960 µg/L
same,"1,1-dichloroethylene concentration after 20 days",[2]; [7],16 µg/L
CCCCCCCCCCCCCCCCOC(=O)CCCCCCCCCCCCCCC [Cetyl palmitate],Nitrate nitrogen concentration after 65 days,[3],20 mg/L
CCCCCCCCCCCCCCCCCC(=O)O[C@H]1CC[C@@]2(C)C(=CC[C@H]3[C@@H]4CC[C@H]([C@H](C)CCCC(C)C)[C@@]4(C)CC[C@@H]32)C1 [Cholesterol stearate],"1,1,1-trichloroethane concentration after 20 days",[1]; [6],650 µg/L
same,"1,1-dichloroethylene concentration after 20 days",[2]; [7],20 µg/L
CCCCCCCCCCCCCCCCCCC(=O)CCCCCCCCCCCCCCCCCC [Distearyl ketone],"1,1,1-trichloroethane concentration after 20 days",[1]; [5],830 µg/L
same,"1,1-dichloroethylene concentration after 20 days",[2]; [5],20 µg/L
CCCCCCCCCCCCCCCCCCNCCCCCCCCCCCCCCCCCC [Distearylamine],"1,1,1-trichloroethane concentration after 20 days",[1]; [5],910 µg/L
same,"1,1-dichloroethylene concentration after 20 days",[2]; [5],24 µg/L
"CCO [Ethanol, reference compound]","1,1,1-trichloroethane concentration after 20 days",[1]; [6],1100 µg/L
same,"1,1-dichloroethylene concentration after 20 days",[2]; [7],19 µg/L
"CC(O)C(=O)O (stereo not drawn) [Lactic acid, reference compound]","1,1,1-trichloroethane concentration after 20 days",[1]; [6],870 µg/L
same,"1,1-dichloroethylene concentration after 20 days",[2]; [7],20 µg/L
"OC[C@H]1O[C@@H](O[C@H]2[C@H](O)[C@@H](O)C(O)O[C@@H]2CO)[C@H](O)[C@@H](O)[C@H]1O (stereo partly drawn) [Lactose, reference compound]",Nitrate nitrogen concentration after 65 days,[3],41 mg/L
"CO [Methanol, reference compound]","1,1,1-trichloroethane concentration after 20 days",[1]; [5],1330 µg/L
same,"1,1-dichloroethylene concentration after 20 days",[2]; [5],49 µg/L
CCCCCCCCCCCCCCOC(=O)CCCCCCCCCCCCC [Myristyl myristate],Nitrate nitrogen concentration after 30 days,[4],5 mg/L
CCCCCCCCCCCCCCN [Myristylamine],"1,1,1-trichloroethane concentration after 20 days",[1]; [5],940 µg/L
same,"1,1-dichloroethylene concentration after 20 days",[2]; [5],29 µg/L
"CCCCCCCC/C=C\CCCCCCCC(=O)O [Oleic acid, reference compound]","1,1,1-trichloroethane concentration after 20 days",[1]; [6],690 µg/L
same,"1,1-dichloroethylene concentration after 20 days",[2]; [7],21 µg/L
CCCCCCCCCCCCCCCCCC(=O)O [Stearic acid],"1,1,1-trichloroethane concentration after 20 days",[1]; [6],820 µg/L
same,Nitrate nitrogen concentration after 65 days,[3],22 mg/L
same,"1,1-dichloroethylene concentration after 20 days",[2]; [7],24 µg/L
CCCCCCCCCCCCCCCCCC(N)=O [Stearic amide],"1,1,1-trichloroethane concentration after 20 days",[1]; [5],790 µg/L
same,"1,1-dichloroethylene concentration after 20 days",[2]; [5],24 µg/L
CCCCCCCCCCCCCCCCCCO [Stearyl alcohol],Nitrate nitrogen concentration after 30 days,[4],4 mg/L
CC(=O)O.CCCCCCCCCCCCCCCCCCN [Stearylamine acetate],"1,1,1-trichloroethane concentration after 20 days",[1]; [5],900 µg/L
same,"1,1-dichloroethylene concentration after 20 days",[2]; [5],28 µg/L
CCCCCCCCCCCCO [lauryl alcohol],Nitrate nitrogen concentration after 65 days,[3],18 mg/L
Myristilate,Nitrate nitrogen concentration after 30 days,[4],9 mg/L
Oleic monoglyceride,"1,1,1-trichloroethane concentration after 20 days",[1]; [6],700 µg/L
same,"1,1-dichloroethylene concentration after 20 days",[2]; [7],19 µg/L
Polyoxyethylene octylphenyl ether,"1,1,1-trichloroethane concentration after 20 days",[1]; [6],820 µg/L
same,"1,1-dichloroethylene concentration after 20 days",[2]; [7],24 µg/L
Sorbitan distearate,Nitrate nitrogen concentration after 65 days,[3],14 mg/L
Sorbitan monopalmitate,Nitrate nitrogen concentration after 30 days,[4],5 mg/L
Tetraglyceryl pentastearate,Nitrate nitrogen concentration after 30 days,[4],8 mg/L
